Measurements as given in ChEMBL document CHEMBL1201862, “PubChem BioAssay data set” (2004).
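Values below derive from 48-hour exposures of cells grown in 96-well plates, with endpoints linearly interpolated between the two concentrations bracketing the appropriate inhibition level. The concentration for 50% growth inhibition is given as GI50.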 Active and inactive are the calls of the source. Rule as the data show it: active = GI50 up to about 1.1 µM and inactive = higher.

Legend:
Test in all cases: inhibition of tumour cell growth, NCI panel, 48 h
[1] = system: 786-0
[2] = system: A498
[3] = system: A549
[4] = system: ACHN
[5] = system: CAKI-1
[6] = system: CCRF-CEM
[7] = system: COLO 205
[8] = system: DLD-1
[9] = system: DMS-114
[10] = system: DMS-273
[11] = system: EKVX
[12] = system: HCC 2998
[13] = system: HCT-116
[14] = system: HCT-15
[15] = system: HL-60
[16] = system: HOP-62
[17] = system: HOP-92
[18] = system: IGROV-1
[19] = system: K562
[20] = system: KM-20L2
[21] = system: KM12
[22] = system: LOX IMVI
[23] = system: LXFL 529
[24] = system: M14
[25] = system: M19-MEL
[26] = system: MOLT-4
[27] = system: Malme-3M
[28] = system: NCI-H226
[29] = system: NCI-H23
[30] = system: NCI-H460
[31] = system: NCI-H522
[32] = system: OVCAR-3
[33] = system: OVCAR-4
[34] = system: OVCAR-5
[35] = system: OVCAR-8
[36] = system: RPMI-8226
[37] = system: SF-268
[38] = system: SF-539
[39] = system: SK-MEL-28
[40] = system: SK-MEL-2
[41] = system: SK-MEL-5
[42] = system: SN12C
[43] = system: SNB-19
[44] = system: SNB-75
[45] = system: SR
[46] = system: SW-620
[47] = system: TK-10
[48] = system: U-251
[49] = system: UACC-257
[50] = system: UACC-62
[51] = system: UO-31
[52] = system: XF498
[53] = system: HOP-18
[54] = system: HT-29
[55] = system: MCF7
[56] = system: NCI/ADR-RES
[57] = system: RXF 393
[58] = system: SF-295
[59] = system: SK-OV-3
[60] = system: SNB-78

N#CC1=C(N)n2c(s/c(=C\c3ccc(Cl)cc3)c2=O)=C(c2nc3ccccc3[nH]2)C1c1ccc(Cl)cc1 (configuration not stated)
GI50 [1]: 2.23 µM (inactive)
GI50 [2]: 1.38 µM (inactive)
GI50 [3]: 3.32 µM (inactive)
GI50 [4]: 2.29 µM (inactive)
GI50 [5]: 2.98 µM (inactive)
GI50 [6]: 1.71 µM (inactive)
GI50 [7]: 2.51 µM (inactive)
GI50 [8]: 3.65 µM (inactive)
GI50 [9]: 1.99 µM (inactive)
GI50 [10]: 2.12 µM (inactive)
GI50 [11]: 1.88 µM (inactive)
GI50 [12]: 0.411 µM (active)
GI50 [13]: 1.82 µM (inactive)
GI50 [14]: 2.06 µM
GI50 [15]: 2.04 µM (inactive)
GI50 [16]: 2.23 µM (inactive)
GI50 [17]: 0.203 µM (active)
GI50 [18]: 2.28 µM (inactive)
GI50 [19]: 1.91 µM (inactive)
GI50 [20]: 2.21 µM (inactive)
GI50 [21]: 1.42 µM (inactive)
GI50 [22]: 1.65 µM (inactive)
GI50 [23]: 1.9 µM (inactive)
GI50 [24]: 3.62 µM (inactive)
GI50 [25]: 3.04 µM (inactive)
GI50 [26]: 1.47 µM (inactive)
GI50 [27]: 2.25 µM (inactive)
GI50 [28]: 1.91 µM (inactive)
GI50 [29]: 0.426 µM (active)
GI50 [30]: 1.85 µM (inactive)
GI50 [31]: 1.96 µM (inactive)
GI50 [32]: 1.8 µM (inactive)
GI50 [33]: 2.01 µM (inactive)
GI50 [34]: 2.02 µM (inactive)
GI50 [35]: 1.81 µM (inactive)
GI50 [36]: 2.23 µM (inactive)
GI50 [37]: 2.64 µM (inactive)
GI50 [38]: 1.98 µM (inactive)
GI50 [39]: 1.53 µM (inactive)
GI50 [40]: 2.14 µM (inactive)
GI50 [41]: 3.02 µM (inactive)
GI50 [42]: 2.19 µM (inactive)
GI50 [43]: 3.28 µM (inactive)
GI50 [44]: 2.77 µM (inactive)
GI50 [45]: 2.17 µM (inactive)
GI50 [46]: 1.37 µM (inactive)
GI50 [47]: 0.596 µM (active)
GI50 [48]: 1.48 µM (inactive)
GI50 [49]: 2.48 µM (inactive)
GI50 [50]: 1.23 µM (inactive)
GI50 [51]: 4.45 µM (inactive)
GI50 [52]: 1.63 µM (inactive)

CCCCC#CS(=O)(=O)C(F)(F)F
GI50 [2]: 44.9 µM (inactive)
GI50 [3]: > 78.9 µM (inactive)
GI50 [5]: 0.605 µM (active)
GI50 [6]: 48.6 µM (inactive)
GI50 [7]: > 75.7 µM (inactive)
GI50 [8]: > 100 µM (inactive)
GI50 [9]: 37.2 µM (inactive)
GI50 [10]: 48 µM (inactive)
GI50 [11]: > 100 µM (inactive)
GI50 [12]: > 31.6 µM (inactive)
GI50 [13]: 36 µM (inactive)
GI50 [14]: 90.4 µM
GI50 [15]: 23.2 µM (inactive)
GI50 [53]: > 100 µM (inactive)
GI50 [16]: > 61.5 µM (inactive)
GI50 [17]: 34.1 µM (inactive)
GI50 [54]: 22.4 µM (inactive)
GI50 [18]: > 100 µM (inactive)
GI50 [19]: 45.4 µM (inactive)
GI50 [20]: 81.5 µM (inactive)
GI50 [21]: > 83.9 µM (inactive)
GI50 [22]: 60.7 µM (inactive)
GI50 [55]: 52.6 µM (inactive)
GI50 [26]: 33.1 µM (inactive)
GI50 [27]: > 100 µM (inactive)
GI50 [28]: > 100 µM (inactive)
GI50 [29]: 58.6 µM (inactive)
GI50 [30]: > 92.5 µM (inactive)
GI50 [31]: 36.1 µM (inactive)
GI50 [56]: 47.3 µM (inactive)
GI50 [32]: > 56.4 µM (inactive)
GI50 [33]: 27.9 µM (inactive)
GI50 [34]: > 100 µM (inactive)
GI50 [35]: 97.1 µM (inactive)
GI50 [36]: 47.4 µM (inactive)
GI50 [57]: 20.4 µM (inactive)
GI50 [37]: > 72.4 µM (inactive)
GI50 [58]: 20.3 µM (inactive)
GI50 [38]: > 100 µM (inactive)
GI50 [39]: > 60 µM (inactive)
GI50 [40]: > 36.8 µM (inactive)
GI50 [41]: 52.7 µM (inactive)
GI50 [59]: > 94.2 µM (inactive)
GI50 [42]: > 100 µM (inactive)
GI50 [43]: > 90.2 µM (inactive)
GI50 [44]: 36.6 µM (inactive)
GI50 [60]: > 100 µM (inactive)
GI50 [46]: > 100 µM (inactive)
GI50 [48]: 76.6 µM (inactive)
GI50 [49]: 12.9 µM (inactive)
GI50 [50]: 48.2 µM (inactive)
GI50 [51]: 68.9 µM (inactive)
GI50 [52]: 56.9 µM (inactive)

COc1ccc2c([nH]c3cc(O)c(C)cc32)c1CC=C(C)C
GI50 [7]: > 25 µM (inactive)
GI50 [9]: 20.9 µM (inactive)
GI50 [54]: 7.24 µM (inactive)
GI50 [18]: 23.1 µM (inactive)
GI50 [28]: > 25 µM (inactive)
GI50 [32]: 5.32 µM (inactive)
GI50 [33]: 22.5 µM (inactive)
GI50 [34]: > 25 µM (inactive)
GI50 [35]: 4.42 µM (inactive)
GI50 [36]: 8.38 µM (inactive)
GI50 [39]: > 25 µM (inactive)
GI50 [40]: > 25 µM (inactive)
GI50 [59]: > 25 µM (inactive)
GI50 [42]: 5.04 µM (inactive)
GI50 [43]: > 25 µM (inactive)
GI50 [60]: 11.5 µM (inactive)
GI50 [52]: > 25 µM (inactive)
